Test systems include ACHN; BT-549; EKVX; HCT-15; HL-60; HOP-62; K562; MDA-N; NCI-H226; NCI-H23; NCI/ADR-RES; OVCAR-4; OVCAR-8; SF-268; SF-539; SK-MEL-5; SNB-19; SW-620; T47D; UACC-62.
Holding throughout (test): NCI-60 cell line screen, 48 h

SMILES strings stand for the structures.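 Growth conditions: 96-well plates. Treatment: test compound, 48 hours, 5 concentrations. Analysis: linear interpolation between bracketing concentrations; unreached endpoints set to highest concentration. Here, GI50 denotes the concentration required for 50% inhibition of growth.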 Active and inactive are the calls of the source. Cut-off read from the data, not from the text of the source: active = GI50 up to about 1.1 µM and inactive = higher.

For the molecule `CCCSc1ccc2[nH]c(N3C(=O)/C(=C/c4ccc(SC)cc4)N=C3c3ccccc3)cc2c1`, the GI50 was > 50 µM (inactive) in the experiment on ACHN; > 38.7 µM (inactive) in the experiment on BT-549; 18.2 µM (inactive) with EKVX; 22.1 µM in the experiment on HCT-15; 9.14 µM (inactive) with HL-60; 42.6 µM (inactive) in the experiment on HOP-62. For the same molecule, the GI50 with K562 is 0.355 µM (active); with MDA-N it was 6.56 µM (inactive); in the experiment with NCI-H226 it was > 50 µM (inactive); in the experiment on NCI-H23, > 34.4 µM (inactive); in the experiment with NCI/ADR-RES it was > 33 µM (inactive); in the experiment with OVCAR-4 it was 19.6 µM (inactive). Further, the GI50 in the experiment with OVCAR-8 is > 44.6 µM (inactive); in the experiment on SF-268, 29.8 µM (inactive); in the experiment with SF-539, 14 µM (inactive); in the experiment with SK-MEL-5, 10.7 µM (inactive); in the experiment on SNB-19 it was 29.1 µM (inactive); in the experiment with SW-620, 18.5 µM (inactive). Moreover, the GI50 with T47D is 32.1 µM (inactive); in the experiment on UACC-62 it was 24.7 µM (inactive).

For the molecule `C[N+](C)([O-])CCC=C1c2ccccc2CCc2ccccc21`, the GI50 in the experiment with ACHN was 35 µM (inactive); in the experiment with BT-549, 41.9 µM (inactive); in the experiment on EKVX, 24.8 µM (inactive); in the experiment with HCT-15, 27.7 µM; in the experiment on HL-60, 12.6 µM (inactive); in the experiment with HOP-62, 15.6 µM (inactive). In addition, the GI50 was 19.2 µM (inactive) in the experiment on K562; 19.5 µM (inactive) with MDA-N; 31.4 µM (inactive) in the experiment with NCI-H226; 34.1 µM (inactive) with NCI-H23; 22 µM (inactive) with NCI/ADR-RES; 28.2 µM (inactive) with OVCAR-4. For the same molecule, the GI50 is 23.4 µM (inactive) in the experiment with OVCAR-8; 21.5 µM (inactive) in the experiment on SF-268; 36.9 µM (inactive) in the experiment on SF-539; 17.7 µM (inactive) in the experiment on SK-MEL-5; 35.6 µM (inactive) with SNB-19; 21.8 µM (inactive) in the experiment on SW-620. Further, the GI50 is 22.2 µM (inactive) in the experiment on T47D and 17.1 µM (inactive) in the experiment with UACC-62.

For `CC(O)CN1c2ccccc2Sc2ccc(Cl)cc21` (stereo not given), the GI50 is > 10 µM (inactive) in the experiment with ACHN; > 10 µM (inactive) in the experiment with BT-549; > 10 µM (inactive) in the experiment on EKVX; > 10 µM in the experiment with HCT-15; > 10 µM (inactive) in the experiment with HL-60; > 10 µM (inactive) with HOP-62. Further, the GI50 with K562, with MDA-N, in the experiment on NCI-H226, in the experiment on NCI-H23, with NCI/ADR-RES and with OVCAR-4 was > 10 µM (inactive) each time. The GI50 in the experiment with OVCAR-8, with SF-268, in the experiment with SF-539, in the experiment with SK-MEL-5, in the experiment with SNB-19 and in the experiment with SW-620 was > 10 µM (inactive) each time. For the same molecule, the GI50 with T47D and in the experiment with UACC-62 was > 10 µM (inactive) throughout.

Turning to `C=C1C(=O)O[C@@H]2[C@H]1C[C@H](I)[C@@]1(C)CC[C@H](O1)[C@](C)(I)CCCC(C)[C@@H]2O` (stereo not given in full), the GI50 with ACHN is 1.79 µM (inactive); in the experiment on BT-549, 7.23 µM (inactive); with EKVX, 8.95 µM (inactive); with HCT-15, 1.76 µM; with HL-60, 1.31 µM (inactive); in the experiment on HOP-62, 19.4 µM (inactive). The GI50 in the experiment on K562 was 2.37 µM (inactive); with MDA-N, 2.7 µM (inactive); with NCI-H226 it was 1.91 µM (inactive); in the experiment with NCI-H23, 7.43 µM (inactive); with NCI/ADR-RES, 3.17 µM (inactive); in the experiment with OVCAR-4, 6.32 µM (inactive). For the same molecule, the GI50 is 2.96 µM (inactive) in the experiment with OVCAR-8; 12.6 µM (inactive) in the experiment with SF-268; 2.02 µM (inactive) with SF-539; 3.29 µM (inactive) in the experiment with SK-MEL-5; 16.4 µM (inactive) in the experiment on SNB-19; 1.81 µM (inactive) with SW-620. Further, the GI50 in the experiment with T47D was 3.79 µM (inactive); in the experiment on UACC-62, 4.92 µM (inactive).

Consider `CCCN(CCCCC(NC(C)=O)C(=O)NCc1ccccc1)C(=O)N(CCCl)N=O` (stereo not given), for which the GI50 in the experiment with ACHN is 25.8 µM (inactive); in the experiment on BT-549 it was 75.7 µM (inactive); in the experiment with EKVX, > 100 µM (inactive); in the experiment on HCT-15, > 100 µM; with HL-60, 22.3 µM (inactive); in the experiment with HOP-62, 25.5 µM (inactive). Further, the GI50 in the experiment with K562 was 65.2 µM (inactive); in the experiment with MDA-N, > 100 µM (inactive); in the experiment with NCI-H226 it was > 77.8 µM (inactive); in the experiment with NCI-H23, 49.9 µM (inactive); in the experiment on NCI/ADR-RES it was 31.6 µM (inactive); with OVCAR-4 it was > 100 µM (inactive). The GI50 in the experiment with OVCAR-8 is > 89.7 µM (inactive); in the experiment on SF-268, 9.46 µM (inactive); in the experiment on SF-539, 8.55 µM (inactive); in the experiment on SK-MEL-5, > 77.8 µM (inactive); in the experiment on SNB-19, 31.9 µM (inactive); with SW-620, > 97.1 µM (inactive). The GI50 in the experiment on T47D is 78.9 µM (inactive); with UACC-62, 11.7 µM (inactive).

Regarding `CC(C)(Cl)C(Br)CCC(C)(Br)C(Br)CBr` (stereo not given), the GI50 with ACHN is 17.4 µM (inactive); with BT-549, 22.3 µM (inactive); in the experiment on EKVX, 25.4 µM (inactive); with HCT-15, 17.1 µM; with HL-60 it was 17 µM (inactive); with HOP-62, 16.1 µM (inactive). Moreover, the GI50 in the experiment on K562 was 23 µM (inactive); with MDA-N, 19.5 µM (inactive); with NCI-H226 it was 18.8 µM (inactive); in the experiment with NCI-H23, 19.5 µM (inactive); in the experiment with NCI/ADR-RES, 17 µM (inactive); with OVCAR-4, 18.7 µM (inactive). The GI50 was 16.2 µM (inactive) in the experiment on OVCAR-8; 16.9 µM (inactive) with SF-268; 15.6 µM (inactive) with SF-539; 14.6 µM (inactive) with SK-MEL-5; 23.1 µM (inactive) in the experiment on SNB-19; 16.3 µM (inactive) in the experiment on SW-620. For the same molecule, the GI50 in the experiment with T47D was 18.7 µM (inactive); in the experiment on UACC-62, 17.7 µM (inactive).

These data come from ChEMBL document CHEMBL1201862, “PubChem BioAssay data set” (2004).
